Assay results as given in patent US6441184B1, “Fused heteroaromatic glucokinase activators” (Hoffmann-LA Roche Inc., priority 2000, dated 2002).

Test system: C57BL/6J mice
Test: Glucokinase activator in vivo screen protocol (blood glucose after oral dosing)
Settings: administered orally, 50 mg/kg, C57BL/6J mice fasted two hours; active = significant (p<0.05) decrease in blood glucose vs vehicle for two consecutive time points
Description: Glucokinase Activator in vivo Screen Protocol
C57BL/6J mice are orally dosed via gavage with Glucokinase (GK) activator at 50 mg/kg body weight following a two hour fasting period. Blood glucose determinations are made five times during the six hour post-dose study period.
Mice (n=6) are weighed and fasted for a two hour period prior to oral treatment. GK activators are formulated at 6.76 mg/ml in Gelucire vehicle (Ethanol:Gelucire44/14:PEG400q.s. 4:66:30 v/w/v. Mice are dosed orally with 7.5 μL formulation per gram of body weight to equal a 50 mg/kg dose. Immediately prior to dosing, a pre dose (time zero) blood glucose reading is acquired by snipping off a small portion of the animals tail (−1 mm) and collecting 15 μL blood into a heparinized capillary tube for analysis. Following GK activator administration, additional blood glucose readings are taken at 1, 2, 4, and 6 hours post dose from the same tail wound. Results are interpreted by comparing the mean blood glucose values of six vehicle treated mice with six GK activator treated mice over the six hour study duration.

Structure (SMILES) | glucokinase activator in vivo activity
CS(=O)(=O)c1ccc(C(CC2CCCC2)C(=O)Nc2ccc3ccccc3n2)cc1Cl (stereo not drawn) [Example 22, 2-(3-Chloro-4-methanesulfonyl-phenyl)-3-cyclopentyl-N-quinolin-2-yl-propionamide] | excellent glucokinase activator in vivo activity
CS(=O)(=O)c1ccc([C@@H](CC2CCCC2)C(=O)Nc2nc3ccccc3s2)cc1Cl [Example 19, N-Benzothiazol-2-yl-2(R)-(3-chloro-4-methanesulfonyl-phenyl)-3-cyclopentyl-propionamide] | excellent glucokinase activator in vivo activity
CS(=O)(=O)c1ccc(C(CC2CCCC2)C(=O)Nc2nc3ccccc3[nH]2)cc1Cl (stereo not drawn) [Example 20, N-(1H-Benzoimidazol-2-yl)-2-(3-chloro-4-methanesulfonyl-phenyl)-3-cyclopentyl-propionamide] | excellent glucokinase activator in vivo activity
